± gives the expanded uncertainty stated by the source.
Assay: mn = molality of the nth substance listed, in mol/kg
Conditions: 308.15 K, 100 kPa, Liquid, m1 = 0.0148

- speed of sound (Single path-length method): 1521.4 ± 0.7 m/s
- mass density (Vibrating tube method): 995.9 ± 10 kg/m3
SMILES: O=S(=O)([O-])[O-].[Ca+2] [calcium sulfate] + O

Reference: the NIST ThermoML archive (doi:10.1021/acs.jced.9b00354)
